Like-named read-outs stand apart in the source and are kept apart here.
Tests used:
[1] = Solubility of paclitaxel in various solvents (HPLC); assay type: physicochemical
Method: Step “d” was continued for each vial for a total of 48 hours.

high-grade CIN = details: cited from earlier work
rabbit skin = details: Draize rabbit skin test model; cited from earlier work
[2] = methanol/water 15/85 (v/v), 37° C., pH 7, 75 rpm, cited from earlier work
[3] = Specific surface area (SSA), BET isotherm; assay type: physicochemical
Protocol: (§1) As used herein, the “specific surface area (SSA)” is the total surface area of the taxane nanoparticle per unit of taxane mass as measured by the Brunauer-Emmett-Teller (“BET”) isotherm by the following method: a known mass between 200 and 300 mg of the analyte is added to a 30 mL sample tube. […] The automated test is then carried out using the BETWIN® software package and the surface area of each sample is subsequently calculated. The bulk density measurement can be conducted by pouring the taxane nanoparticles into a graduated cylinder without tapping at room temperature, measuring the mass and volume, and calculating the bulk density.

[4] = Bulk density (not tapped); assay type: physicochemical
Protocol: as §1

[5] = Crystal growth of paclitaxel nanoparticles, visual observation by light microscopy; assay type: physicochemical
Gottingen minipigs = assay: Dermal toxicity study, 28 days, GLP; assay type: in vivo; details: topical, daily for 28 days
Protocol: The GLP-compliant study was conducted in Gottingen minipigs to characterize the toxicity of the formulations applied topically to 10% body surface area daily for 28 days. […] Reversibility of findings was also evaluated following a 2-week recovery period. Parameters evaluated included clinical observations, mortality and moribundity checks, dermal scoring, body weight, food consumption, eye examinations, test site photographs, electrocardiology, clinical pathology, bioanalysis and toxicokinetic evaluation, organ weights, macroscopic pathology and histopathology. There were no formulation-related effects on survival, clinical signs, dermal irritation, body weights, body weight gains, food consumption, ophthalmic findings, or cardiology parameters.

[6] = Particle size of paclitaxel nanoparticle lots (ACCUSIZER 780); assay type: physicochemical
Protocol: Instrument parameters: Max. Concentration: 9000 particles/mL, No. containers: 1, Sensor Range: Summation, Lower Detection Limit: 0.5 μm, Flow Rate: 30 mL/min, No. Analysis pulls: 4, Time between pulls: 1 sec, Pull volume: 10 mL, Tare Volume: 1 mL, Prime volume: 1 mL, Include First Pull: Not Selected.
Vortexed for 5-10 minutes and sonicated in a water batch for 1 minute.
Method: Filled a plastic bottle with filtered (0.22 μm) 0.1% w/w SDS solution and analyzed the Background.

[7] = summary statement on the cited study; cited from earlier work
[8] = lot used in formulas listed in Table 3
[9] = lot used in formulas listed in Tables 16-19

CC(=O)O[C@H]1C(=O)[C@@]2(C)[C@H]([C@H](OC(=O)c3ccccc3)[C@]3(O)C[C@H](OC(=O)[C@H](O)[C@@H](NC(=O)c4ccccc4)c4ccccc4)C(C)=C1C3(C)C)[C@]1(OC(C)=O)CO[C@@H]1C[C@@H]2O [Paclitaxel, paclitaxel]
Paclitaxel Solubility at RT ([1]; in Benzyl Alcohol, NF): 17.02% w/w
Paclitaxel Solubility at RT ([1]; in Diethylene Glycol Monoethyl Ether, NF (TRANSCUTOL P)): 33.10% w/w
Paclitaxel Solubility at RT ([1]; in Diisopropyl Adipate (CERAPHYL 230)): 3.51% w/w
Paclitaxel Solubility at RT ([1]; in Dimethyl Isosorbide): 38.22% w/w
Paclitaxel Solubility at RT ([1]; in Hexylene Glycol): 4.07% w/w
Paclitaxel Solubility at RT ([1]; in Isopropyl Myristate, NF): 0.048% w/w
Paclitaxel Solubility at RT ([1]; in Medium Chain Triglycerides, NF): 0.32% w/w
Paclitaxel Solubility at RT ([1]; in Mineral Oil, USP (heavy)): 0.3 ppm
Paclitaxel Solubility at RT ([1]; in Polyethylene Glycol 400, NF): 22.30% w/w
Paclitaxel Solubility at RT ([1]; in Propylene Carbonate): 4.74% w/w
Paclitaxel Solubility at RT ([1]; in Propylene Glycol, USP): 0.88% w/w
Paclitaxel Solubility at RT ([1]; in Super Refined Oleic Acid, NF): 0.041% w/w
Paclitaxel Solubility at RT ([1]; in Super Refined Oleyl Alcohol, NF): 0.38% w/w
solubility of paclitaxel in water ([1]; in water, method of Example 1): less than 0.05 ppm

CC(C)Cn1cnc2c(N)nc3ccccc3c21 [Imiquimod]
tolerability (high-grade CIN; despite frequent adverse effects such as vaginal discharge, vulvar pain, fever, headache, and fatigue): generally well-tolerated
efficacy in the treatment of high-grade CIN (high-grade CIN; topically applied to the ectocervix): some efficacy

CCCCCCCCCCCCN1CCCCCC1=O [laurocapram, 1-Dodecyl azacycloheptan-2-one]
local skin irritation (rabbit skin): edema and erythema have been observed

CC(=O)O[C@@]12CO[C@@H]1C[C@H](O)[C@@]1(C)C(=O)[C@H](O)C3=C(C)[C@@H](OC(=O)[C@H](O)[C@@H](NC(=O)OC(C)(C)C)c4ccccc4)C[C@@](O)([C@@H](OC(=O)c4ccccc4)[C@H]21)C3(C)C [docetaxel nanoparticles, docetaxel]
dissolution rate, % dissolved in 30 minutes ([2]; nanoparticles made by milling): 9%
dissolution rate, % dissolved in 30 minutes ([2]; nanoparticles made by the supercritical carbon dioxide method): 27%

CC(=O)O[C@H]1C(=O)[C@@]2(C)[C@H]([C@H](OC(=O)c3ccccc3)[C@]3(O)C[C@H](OC(=O)[C@H](O)[C@@H](NC(=O)c4ccccc4)c4ccccc4)C(C)=C1C3(C)C)[C@]1(OC(C)=O)CO[C@@H]1C[C@@H]2O [Paclitaxel nanoparticles, paclitaxel]
SSA [3, 8]: 41.24 m^2/g
SSA [3, 9]: 26.72 m^2/g
bulk density (not-tapped) [4, 8]: 0.05 g/mL
bulk density (not-tapped) [4, 9]: 0.09 g/mL
Needle shaped crystals observed? (visual observation by light microscopy) ([5]; in Aluminum sulfate 0.1-0.2% in water, 7 days, RT): Yes, >5 μm, @
Needle shaped crystals observed? (visual observation by light microscopy) ([5]; in Ammonium lauryl sulfate 2% in water, 3 days, RT): Yes, >5 μm @
Needle shaped crystals observed? (visual observation by light microscopy) ([5]; in Benzalkonium chloride (50%) 2% in water, 7 days & 21 days, RT): No, <5 μm @
Needle shaped crystals observed? (visual observation by light microscopy) ([5]; in CARBOPOL ULTREZ 10 (with Ammonium hydroxide as neutralizer) 0.5% in water, 8 days & 21 days, RT): No, <5 μm, @
Needle shaped crystals observed? (visual observation by light microscopy) ([5]; in Castor Oil 100%, 24 hrs & 9 days, RT): No, <5 μm @
Needle shaped crystals observed? (visual observation by light microscopy) ([5]; in Dimethicone, 1000 cSt 100%, 24 hrs & 6 days, RT): No, <5 μm @
Needle shaped crystals observed? (visual observation by light microscopy) ([5]; in FOMBLIN HC04 100%, 4, 7 & 13 days, RT): No, <5 μm @
Needle shaped crystals observed? (visual observation by light microscopy) ([5]; in Hydroxyethyl cellulose 1% in water, 7 days, RT): Yes, >5 μm, @
Needle shaped crystals observed? (visual observation by light microscopy) ([5]; in Hydroxypropyl methylcellulose 1% in water, 3 days, RT): Yes, >5 μm @
Needle shaped crystals observed? (visual observation by light microscopy) ([5]; in Lecithin 1% in water, 24 hrs, RT): Yes, >10 μm, @
Needle shaped crystals observed? (visual observation by light microscopy) ([5]; in Light Mineral Oil NF 100%, 3 days, RT & 40 C.): No, <5 μm @
Needle shaped crystals observed? (visual observation by light microscopy) ([5]; in Magnesium nitrate 5% in water, 3 days, RT): Yes, >5 μm @
Needle shaped crystals observed? (visual observation by light microscopy) ([5]; in Mannitol 5% in water, 7 days, RT): Yes, >5 μm, @
Needle shaped crystals observed? (visual observation by light microscopy) ([5]; in Mineral Oil USP (heavy) 100%, 3 days, RT & 40 C.): No, <5 μm @
Needle shaped crystals observed? (visual observation by light microscopy) ([5]; in PEG 400 10% in water, 22 days, RT & 60 C.): Yes, >5 μm @
Needle shaped crystals observed? (visual observation by light microscopy) ([5]; in Poloxamer 188 2% in water, 7 days, RT): Yes, >5 μm @
Needle shaped crystals observed? (visual observation by light microscopy) ([5]; in Poloxamer 407 2% in water, 5 & 7 days, RT): No, <5 μm @
Needle shaped crystals observed? (visual observation by light microscopy) ([5]; in Polyoxyl 40 Hydrogenated Castor Oil (KOLLIPHOR RH40) 1% in water, 6 days, RT): Yes, <5 μm @
Needle shaped crystals observed? (visual observation by light microscopy) ([5]; in Polysorbate 80 0.5% in Saline, 7 days, RT & 60 C.): Yes, >5 μm @
Needle shaped crystals observed? (visual observation by light microscopy) ([5]; in Polysorbate 80 0.5% in water, 22 days, RT & 60 C.): Yes, <5 μm @
Needle shaped crystals observed? (visual observation by light microscopy) ([5]; in Povidone 1% in water, 7 days & 21 days, RT): Yes, <5 μm @
Needle shaped crystals observed? (visual observation by light microscopy) ([5]; in Proline 3% in water, 7 days, RT): Yes, >5 μm, @
Needle shaped crystals observed? (visual observation by light microscopy) ([5]; in Purified Water 100%, 5 days, RT & 60 C.): Yes, >5 μm, @
Needle shaped crystals observed? (visual observation by light microscopy) ([5]; in ST-Cyclomethicone 5 NF 100%, 24 hrs & 13 days, RT): No, <5 μm @
Needle shaped crystals observed? (visual observation by light microscopy) ([5]; in Saline 0.9% NaCl in water, 7 days, RT & 60 C.): Yes, >10 μm, @
Needle shaped crystals observed? (visual observation by light microscopy) ([5]; in Sodium lauryl sulfate 2% in water, 7 days, RT): Yes, >5 μm, @
Needle shaped crystals observed? (visual observation by light microscopy) ([5]; in Sodium phosphate monobasic 0.75% in water, 7 days, RT): Yes, >5 μm, @
Needle shaped crystals observed? (visual observation by light microscopy) ([5]; in Sorbitol 5% in water, 7 days, RT): Yes, >5 μm, @
Needle shaped crystals observed? (visual observation by light microscopy) ([5]; in Vitamin E TPGS 0.5% in water, 6 days, RT): Yes, <5 μm @
Needle shaped crystals observed? (visual observation by light microscopy) ([5]; in Zinc acetate […] in water, 7 days, RT): Yes, >5 μm, @
crystal growth ([5]; in any of the hydrophobic carriers of Table 2): did not grow
crystal growth ([5]; in aqueous solutions of benzalkonium chloride, CARBOPOL ULTREZ 10, or poloxamer 407): did not grow
effect of the presence of the nanoparticles in the formulations on dermal irritation (Gottingen minipigs): negligible effect
Particle size, Mean (number-weighted differential distribution) [6, 8]: 0.861 μm
Particle size, Median (number-weighted differential distribution) [6, 8]: 0.710 μm
Particle size, Mode (number-weighted differential distribution) [6, 8]: 0.572 μm
Particle size, Mean (number-weighted differential distribution) [6, 9]: 0.83 μm

Cyclomethicone
irritation to vaginal tissues [7]: non-irritating

Source: US11497726B2, “Topical therapy for the treatment of cervical intraepithelial neoplasia (CIN) and cervical cancer using nanoparticles of taxanes” (DFB SORIA, LLC, priority 2018, dated 2022)
